According to ChEMBL document CHEMBL4732247, “Discovery of A031 as effective proteolysis targeting chimera (PROTAC) androgen receptor (AR) degrader for the treatment of prostate cancer” (Eur J Med Chem, 2021):
Activity calls are given as the source filed them. The rule behind the calls is not given here.

How the values were obtained:
[1] = system: VCaP; experiment: Cytotoxicity against human VCaP cells assessed as growth inhibition at 0.032 uM after 4 days by CCK8 assay relative to control; type: functional; conditions: 96 h, time 4 day, read-out: GI
[2] = system: VCaP; experiment: Cytotoxicity against human VCaP cells assessed as growth inhibition at 0.16 uM after 4 days by CCK8 assay relative to control; type: functional; conditions: 96 h, time 4 day, read-out: GI
[3] = system: VCaP; experiment: Cytotoxicity against human VCaP cells assessed as growth inhibition after 4 days by CCK8 assay; type: functional, cell-based; conditions: dose 0.032-4 µM, time 4.0 day
[4] = system: VCaP; experiment: Cytotoxicity against human VCaP cells assessed as growth inhibition at 0.8 uM after 4 days by CCK8 assay relative to control; type: functional; conditions: 96 h, time 4 day, read-out: GI
[5] = system: VCaP; experiment: Cytotoxicity against human VCaP cells assessed as growth inhibition at 4 uM after 4 days by CCK8 assay relative to control; type: functional; conditions: 96 h, time 4 day, read-out: GI
[6] = Toxicity in AB zebra fish assessed as mortality rate at 6.25 to 25 uM after 5 days relative to control; set-up: species or system Danio rerio; conditions: zebrafish, dose 6.25-25 µM, time 5 day
[7] = AUC in Sprague-Dawley rat […] at 1 mg/kg, iv measured up to 8 hrs by HPLC-MS analysis; type: ADME, organism-based; set-up: route intravenous, dose 1 mg/kg, time <=8; conditions: in vivo
[8] = target: T1, von Hippel-Lindau disease tumor suppressor/Androgen receptor (Homo sapiens) (UniProt P10275+P40337); experiment: Protac activity at VHL3/AR in human VCAP cells assessed as induction of AR degradation at 2 uM after 2 hrs in presence of proteasome inhibitor MG132 by western blot analysis relative to control; type: cell-based
[9] = Cmax in Sprague-Dawley rat […] at 1 mg/kg, iv measured up to 8 hrs by HPLC-MS analysis; type: ADME, organism-based; set-up: route intravenous, dose 1 mg/kg, time <=8; conditions: in vivo
[10] = target: T1, von Hippel-Lindau disease tumor suppressor/Androgen receptor (Homo sapiens); experiment: Protac activity at VHL3/AR in human VCAP cells assessed as induction of AR degradation at 2 uM by western blot analysis; type: cell-based; conditions: time 2-4.5 hrs, TDE = time-dependent effect
[11] = system: VCaP; experiment: Antitumour activity against human VcaP cells xenografted in AB zebra fish assessed as tumour growth inhibition at 8.3 uM after 5 days by […] dye based fluorescence microscopic method; type: functional; conditions: 120 h, time 5 day, read-out: TGI
[12] = Toxicity in AB zebra fish assessed as obvious precipitation at 50 to 100 uM after 5 days; set-up: species or system Danio rerio; conditions: zebrafish, 120 h, dose 50-100 µM, time 5 day
[13] = system: VCaP; experiment: Antitumour activity against human VcaP cells xenografted in AB zebra fish assessed as tumour growth inhibition at 25 uM after 5 days by […] dye based fluorescence microscopic method; type: functional; conditions: 120 h, time 5 day, read-out: TGI
[14] = Half life in Sprague-Dawley rat […] at 1 mg/kg, iv measured up to 8 hrs by HPLC-MS analysis; type: ADME, organism-based; conditions: in vivo
[15] = system: VCaP; experiment: Antitumour activity against human VcaP cells xenografted in AB zebra fish assessed as tumour growth inhibition at 2.8 uM after 5 days by […] dye based fluorescence microscopic method; type: functional; conditions: 120 h, time 5 day, read-out: TGI
[16] = system: VCaP; experiment: Cytotoxicity against human VCaP cells assessed as growth inhibition at 0.25 uM after 4 days by CCK8 assay relative to control; type: functional; conditions: 96 h, time 4 day, read-out: GI
[17] = system: VCaP; experiment: Cytotoxicity against human VCaP cells assessed as growth inhibition at 1 uM after 4 days by CCK8 assay relative to control; type: functional; conditions: 96 h, time 4 day, read-out: GI
[18] = target: T1, von Hippel-Lindau disease tumor suppressor/Androgen receptor (Homo sapiens); experiment: Protac activity at VHL3/AR in human VCAP cells assessed as induction of AR degradation at 2 uM after 4.5 hrs by western blot analysis relative to control; type: cell-based
[19] = target: T1, von Hippel-Lindau disease tumor suppressor/Androgen receptor (Homo sapiens); experiment: Protac activity at VHL3/AR in human VCAP cells assessed as induction of AR degradation at 2 uM after 2 hrs in presence of VHL-3 by western blot analysis; type: cell-based
[20] = Toxicity in AB zebra fish assessed as maximum non-toxic concentration after 5 days; set-up: species or system Danio rerio; conditions: zebrafish, time 5 day, read-out: MTC
[21] = target: T1, von Hippel-Lindau disease tumor suppressor/Androgen receptor (Homo sapiens); experiment: Protac activity at VHL3//AR in human VCAP cells assessed as induction of AR degradation at 2 uM after 2 hrs in presence of E1 inhibitor MLN4924 by western blot analysis relative to control; type: cell-based
[22] = Toxicity in AB zebra fish assessed as toxic phenotype at 6.25 to 25 uM after 5 days relative to control; set-up: species or system Danio rerio; conditions: zebrafish, 120 h, dose 6.25-25 µM, time 5 day
[23] = target: T1, von Hippel-Lindau disease tumor suppressor/Androgen receptor (Homo sapiens); experiment: Protac activity at VHL3/AR in human VCAP cells assessed as induction of AR degradation at 2 uM after 2 hrs by western blot analysis relative to control; type: cell-based
[24] = system: VCaP; experiment: Cytotoxicity against human VCaP cells assessed as growth inhibition at 0.5 uM after 4 days by CCK8 assay relative to control; type: functional; conditions: 96 h, time 4 day, read-out: GI
[25] = system: VCaP; experiment: Cytotoxicity against human VCaP cells assessed as growth inhibition at 0.125 uM after 4 days by CCK8 assay relative to control; type: functional; conditions: 96 h, time 4 day, read-out: GI
[26] = Toxicity in AB zebra fish assessed as mortality rate at 10 to 200 uM after 5 days relative to control; set-up: species or system Danio rerio; conditions: zebrafish, dose 10-200 µM, time 5 day
[27] = Toxicity in AB zebra fish assessed as rolled over at 5 uM after 5 days relative to control; set-up: species or system Danio rerio; conditions: zebrafish, 120 h, time 5 day
[28] = system: VCaP; experiment: Antitumour activity against human VcaP cells xenografted in AB zebra fish assessed as tumour growth inhibition at 5 uM after 5 days by CM-D11 dye based fluorescence microscopic method; conditions: 120 h, read-out: TGI
[29] = Toxicity in AB zebra fish assessed as mortality rate at 5 uM after 5 days relative to control; set-up: species or system Danio rerio; conditions: zebrafish, time 5 day

T1 sequence (P10275 whole entry, looked up): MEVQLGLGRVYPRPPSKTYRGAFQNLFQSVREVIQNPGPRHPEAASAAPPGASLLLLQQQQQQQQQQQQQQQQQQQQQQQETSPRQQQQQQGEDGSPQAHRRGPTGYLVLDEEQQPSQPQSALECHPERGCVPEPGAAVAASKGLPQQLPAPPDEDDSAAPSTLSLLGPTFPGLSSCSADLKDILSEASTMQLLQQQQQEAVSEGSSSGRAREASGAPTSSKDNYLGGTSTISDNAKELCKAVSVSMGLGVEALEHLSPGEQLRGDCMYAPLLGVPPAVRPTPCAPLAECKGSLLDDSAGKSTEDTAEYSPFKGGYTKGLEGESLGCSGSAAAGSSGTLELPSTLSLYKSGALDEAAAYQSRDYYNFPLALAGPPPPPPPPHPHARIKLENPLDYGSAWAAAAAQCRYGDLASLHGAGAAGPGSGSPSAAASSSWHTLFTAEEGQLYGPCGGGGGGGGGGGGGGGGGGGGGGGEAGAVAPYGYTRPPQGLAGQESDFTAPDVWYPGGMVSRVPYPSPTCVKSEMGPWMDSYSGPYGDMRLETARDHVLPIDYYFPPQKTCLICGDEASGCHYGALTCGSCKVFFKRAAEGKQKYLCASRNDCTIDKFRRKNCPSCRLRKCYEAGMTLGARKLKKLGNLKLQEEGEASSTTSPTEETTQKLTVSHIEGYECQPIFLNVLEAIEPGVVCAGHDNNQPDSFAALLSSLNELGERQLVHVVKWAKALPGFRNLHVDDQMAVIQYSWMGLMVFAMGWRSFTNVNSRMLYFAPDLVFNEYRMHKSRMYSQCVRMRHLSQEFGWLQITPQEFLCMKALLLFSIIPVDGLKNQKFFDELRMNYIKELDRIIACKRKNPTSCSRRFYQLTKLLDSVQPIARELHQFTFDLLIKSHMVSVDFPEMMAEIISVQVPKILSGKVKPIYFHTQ
T1 sequence (P40337 whole entry, looked up): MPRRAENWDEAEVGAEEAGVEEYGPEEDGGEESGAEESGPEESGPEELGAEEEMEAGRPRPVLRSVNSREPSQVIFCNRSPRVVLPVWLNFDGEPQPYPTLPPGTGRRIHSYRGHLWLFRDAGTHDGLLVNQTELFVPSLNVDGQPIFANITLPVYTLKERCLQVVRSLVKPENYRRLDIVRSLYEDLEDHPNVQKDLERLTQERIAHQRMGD

In the case of `N#Cc1ccc(O[C@H]2C[C@H]3CC[C@@H](C2)N3C(=O)c2ccc(N3CCN(CCCCCCCCNc4cccc5c4C(=O)N(C4CCC(=O)NC4=O)C5=O)CC3)cc2)cc1Cl` (stereo partly drawn), the inhibition of growth at 0.032 µM [1] is reported as 0.07%, the inhibition of growth at 0.16 µM [2] is reported as 22.9% and the “growth inhibition (GI)” value [3] is reported as “Dose-dependent effect”. The inhibition of growth at 0.8 µM [4] was 41.5% and the inhibition of growth at 4 µM [5] was 51.2%.

For `N#Cc1ccc(O[C@H]2C[C@H]3CC[C@@H](C2)N3C(=O)c2ccc(N3CCN(CCCCCCCNc4cccc5c4C(=O)N(C4CCC(=O)NC4=O)C5=O)CC3)cc2)cc1Cl` (stereo partly drawn), the inhibition of growth at 0.16 µM [2] was 15.7%, the “growth inhibition (GI)” value [3] was “Dose-dependent effect” and the inhibition of growth at 0.8 µM [4] was 42.4%. The inhibition of growth at 4 µM [5] was 47.2%.

For `Cc1ncsc1-c1ccc([C@H](C)NC(=O)[C@@H]2C[C@@H](O)CN2C(=O)[C@@H](NC(=O)COCCN2CCN(c3ncc(C(=O)N4[C@@H]5CC[C@H]4C[C@@H](Oc4ccc(C#N)c(Cl)c4)C5)cn3)CC2)C(C)(C)C)cc1`, the mortality at 120 h [6] was 0%, the AUC at 8 h [7] was 1770 ng·h/mL and the Activity [8] was “inactive”. The Cmax [9] was 14400 ng/mL, the Activity [10] was “Tde” and the inhibition in vivo at 8.3 µM [11] was 44%. For the same molecule, the Activity [12] was “Toxic”, the inhibition in vivo at 25 µM [13] was 61% and the half-life [14] was 34.2 min. It also gave an inhibition in vivo at 2.8 µM [15] of 28%, an inhibition of growth at 0.25 µM [16] of 56.4% and an inhibition of growth at 1 µM [17] of 69.6%. The Activity [18] was “Active”, the Activity [19] was “Active” and the MNTC at 120 h [20] was 25 µM. The Activity [21] was “inactive”, the Activity [22] was “Non-Toxic” and the Activity [23] was “Active”. For the same molecule, the inhibition of growth at 0.5 µM [24] was 66.1% and the inhibition of growth at 0.125 µM [25] was 40.3%.

With `N#Cc1ccc(O[C@H]2C[C@H]3CC[C@@H](C2)N3C(=O)c2ccc(N3CCN(CCCCCCCCCNc4cccc5c4C(=O)N(C4CCC(=O)NC4=O)C5=O)CC3)cc2)cc1Cl` (stereo partly drawn) the inhibition of growth at 0.032 µM [1] was 15.4%, the inhibition of growth at 0.16 µM [2] was 27.7% and the “growth inhibition (GI)” value [3] was “Dose-dependent effect”. It also gave an inhibition of growth at 0.8 µM [4] of 42.5% and an inhibition of growth at 4 µM [5] of 42.1%.

Molecule `CNC(=O)c1ccc(N2C(=S)N(c3ccc(C#N)c(C(F)(F)F)c3)C(=O)C2(C)C)cc1F` [ENZALUTAMIDE] has a mortality at 120 h, up to 200 µM [26] of 100%, an Activity [27] of 10% and an inhibition in vivo at 5 µM [28] of 49%. It also gave a mortality at 120 h, 5 µM [29] of 0%.
